In patent EP4722207A1, “OXOISOINDOLINYL-SUBSTITUTED TETRAHYDROPYRIMIDINEDIONE DERIVATIVE AND USE THEREOF” (Gluetacs Therapeutics (Shanghai) Co., Ltd., priority 2023, dated 2024):

Experiments:
WEE1 = molecular target: T1, WEE1 (Homo sapiens, UniProt P30291+Q96SW2); assay: Western-blot assay, substrate protein degradation in hPBMCs: WEE1; format: cell-based; settings: for WEE1 substrate protein remaining %: compounds at 50 nM and 500 nM, 24 hours; for substrate protein remaining % WEE1: 24 hours of compound treatment, 50 nM and 500 nM
T1 construct: effects of the compounds of the present disclosure on the expression of target proteins in cells; endogenous in cells; host or cells: human PBMCs (hPBMCs)

GSPT1 = molecular target: T2, GSPT1 (Homo sapiens, UniProt P15170+Q96SW2); assay: Western-blot assay, substrate protein degradation in hPBMCs: GSPT1; format: cell-based; settings: for GSPT1 substrate protein remaining %: compounds at 50 nM and 500 nM, 24 hours; for substrate protein remaining % GSPT1: 24 hours of compound treatment, 50 nM and 500 nM
T2 construct: effects of the compounds of the present disclosure on the expression of target proteins in cells; endogenous in cells; host or cells: human PBMCs (hPBMCs)

IKZF3 = molecular target: T3, IKZF3 (Homo sapiens, UniProt Q96SW2+Q9UKT9); assay: Western-blot assay, substrate protein degradation in hPBMCs: IKZF3; format: cell-based; settings: for IKZF3 substrate protein remaining %: compounds at 50 nM and 500 nM, 24 hours; for substrate protein remaining % IKZF3: 24 hours of compound treatment, 50 nM and 500 nM
T3 construct: effects of the compounds of the present disclosure on the expression of target proteins in cells; endogenous in cells; host or cells: human PBMCs (hPBMCs)

MM.1S = assay: Cell viability assay (CellTiter-Meiluncell Luminescent), tumor cell proliferation, MM.1S; settings: Homo sapiens, MM1.S, 96 h; for IC50: read-out: inhibitory activity (IC50, nM) against tumor cells proliferation, MM.1S; for inhibition at 0.01 µM: read-out: Inhibition Rate at 10 nM (%); for inhibition at 0.5 µM: read-out: Inhibition Rate at 500 nM (%)
CK1α = molecular target: T4, CK1α (Homo sapiens, UniProt P48729+Q96SW2); assay: Western-blot assay, substrate protein degradation in hPBMCs: CK1α; format: cell-based; settings: for CK1α substrate protein remaining %: compounds at 50 nM and 500 nM, 24 hours; for substrate protein remaining % CK1α: 24 hours of compound treatment, 50 nM and 500 nM
T4 construct: effects of the compounds of the present disclosure on the expression of target proteins in cells; endogenous in cells; host or cells: human PBMCs (hPBMCs)

IKZF2 = molecular target: T5, IKZF2 (Homo sapiens, UniProt Q96SW2+Q9UKS7); assay: Western-blot assay, substrate protein degradation in hPBMCs: IKZF2; format: cell-based; settings: for IKZF2 substrate protein remaining %: compounds at 50 nM and 500 nM, 24 hours; for substrate protein remaining % IKZF2: 24 hours of compound treatment, 50 nM and 500 nM
T5 construct: effects of the compounds of the present disclosure on the expression of target proteins in cells; endogenous in cells; host or cells: human PBMCs (hPBMCs)

IKZF1 = molecular target: T6, IKZF1 (Homo sapiens, UniProt Q13422+Q96SW2); assay: Western-blot assay, substrate protein degradation in hPBMCs: IKZF1; format: cell-based; settings: for IKZF1 substrate protein remaining %: compounds at 50 nM and 500 nM, 24 hours; for substrate protein remaining % IKZF1: 24 hours of compound treatment, 50 nM and 500 nM
T6 construct: effects of the compounds of the present disclosure on the expression of target proteins in cells; endogenous in cells; host or cells: human PBMCs (hPBMCs)

MV-4-11 = assay: Cell viability assay (CellTiter-Meiluncell Luminescent), tumor cell proliferation, MV-4-11; settings: Homo sapiens, MV4-11, 96 h
H292 = assay: Cell viability assay (CellTiter-Meiluncell Luminescent), tumor cell proliferation, H292; settings: Homo sapiens, NCI-H292, 96 h; for inhibition at 0.01 µM: read-out: Inhibition Rate at 10 nM (%); for inhibition at 0.5 µM: read-out: Inhibition Rate at 500 nM (%)

T5 sequence (Q9UKS7 whole entry): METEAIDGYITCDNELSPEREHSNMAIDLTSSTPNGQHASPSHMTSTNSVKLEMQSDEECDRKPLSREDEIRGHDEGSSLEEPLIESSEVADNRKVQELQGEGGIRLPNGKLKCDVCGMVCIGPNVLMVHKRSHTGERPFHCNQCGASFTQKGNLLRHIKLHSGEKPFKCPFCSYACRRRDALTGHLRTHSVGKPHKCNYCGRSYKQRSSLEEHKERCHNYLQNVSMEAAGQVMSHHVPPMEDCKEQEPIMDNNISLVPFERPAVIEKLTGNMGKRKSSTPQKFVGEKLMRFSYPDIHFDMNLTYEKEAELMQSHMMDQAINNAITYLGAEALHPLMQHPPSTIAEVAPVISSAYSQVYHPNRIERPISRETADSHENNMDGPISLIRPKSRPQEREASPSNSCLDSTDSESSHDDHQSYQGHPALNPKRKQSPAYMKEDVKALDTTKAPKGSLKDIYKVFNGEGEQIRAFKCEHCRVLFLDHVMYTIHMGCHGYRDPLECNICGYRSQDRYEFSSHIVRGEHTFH
T5 sequence (Q96SW2 whole entry): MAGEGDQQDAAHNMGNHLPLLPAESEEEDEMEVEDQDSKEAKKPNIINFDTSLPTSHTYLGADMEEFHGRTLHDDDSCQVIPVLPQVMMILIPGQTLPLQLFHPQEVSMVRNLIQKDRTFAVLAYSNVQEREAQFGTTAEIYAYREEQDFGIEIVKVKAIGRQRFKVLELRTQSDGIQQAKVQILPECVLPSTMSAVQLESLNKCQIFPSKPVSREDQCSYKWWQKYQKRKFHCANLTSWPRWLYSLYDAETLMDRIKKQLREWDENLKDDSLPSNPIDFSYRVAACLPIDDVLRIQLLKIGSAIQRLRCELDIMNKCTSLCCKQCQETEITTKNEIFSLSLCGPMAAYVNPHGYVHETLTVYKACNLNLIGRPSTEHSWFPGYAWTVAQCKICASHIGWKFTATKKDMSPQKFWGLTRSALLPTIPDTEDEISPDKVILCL
T5 sequence (Q16531 whole entry partner): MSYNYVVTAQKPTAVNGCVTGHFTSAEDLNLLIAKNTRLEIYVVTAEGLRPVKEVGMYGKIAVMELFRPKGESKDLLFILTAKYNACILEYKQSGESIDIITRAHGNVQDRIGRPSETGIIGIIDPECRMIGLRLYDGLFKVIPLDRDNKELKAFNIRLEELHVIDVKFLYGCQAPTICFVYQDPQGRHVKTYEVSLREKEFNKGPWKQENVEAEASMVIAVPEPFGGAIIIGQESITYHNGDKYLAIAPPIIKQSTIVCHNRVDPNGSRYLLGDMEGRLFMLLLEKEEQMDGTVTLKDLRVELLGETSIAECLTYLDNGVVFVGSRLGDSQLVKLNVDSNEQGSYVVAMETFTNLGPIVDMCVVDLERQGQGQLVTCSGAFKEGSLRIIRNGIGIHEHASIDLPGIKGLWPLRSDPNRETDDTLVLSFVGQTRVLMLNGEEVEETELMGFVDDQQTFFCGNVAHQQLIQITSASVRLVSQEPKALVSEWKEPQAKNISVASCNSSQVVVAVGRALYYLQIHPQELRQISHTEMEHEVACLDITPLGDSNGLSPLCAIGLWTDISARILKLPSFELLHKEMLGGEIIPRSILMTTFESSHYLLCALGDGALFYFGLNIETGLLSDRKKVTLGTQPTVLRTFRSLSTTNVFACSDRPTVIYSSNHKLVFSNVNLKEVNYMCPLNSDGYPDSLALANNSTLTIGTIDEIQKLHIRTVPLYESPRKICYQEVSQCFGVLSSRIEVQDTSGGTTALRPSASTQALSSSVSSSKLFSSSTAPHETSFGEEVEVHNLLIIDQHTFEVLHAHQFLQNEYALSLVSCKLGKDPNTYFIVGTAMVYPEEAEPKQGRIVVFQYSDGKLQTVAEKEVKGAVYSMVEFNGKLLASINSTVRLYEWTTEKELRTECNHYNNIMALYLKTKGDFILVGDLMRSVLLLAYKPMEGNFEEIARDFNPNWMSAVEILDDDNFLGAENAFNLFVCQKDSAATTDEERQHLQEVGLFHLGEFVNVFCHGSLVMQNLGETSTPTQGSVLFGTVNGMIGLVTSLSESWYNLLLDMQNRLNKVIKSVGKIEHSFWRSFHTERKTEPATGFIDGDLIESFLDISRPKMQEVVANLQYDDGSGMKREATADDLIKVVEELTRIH
T1 sequence (P30291 whole entry): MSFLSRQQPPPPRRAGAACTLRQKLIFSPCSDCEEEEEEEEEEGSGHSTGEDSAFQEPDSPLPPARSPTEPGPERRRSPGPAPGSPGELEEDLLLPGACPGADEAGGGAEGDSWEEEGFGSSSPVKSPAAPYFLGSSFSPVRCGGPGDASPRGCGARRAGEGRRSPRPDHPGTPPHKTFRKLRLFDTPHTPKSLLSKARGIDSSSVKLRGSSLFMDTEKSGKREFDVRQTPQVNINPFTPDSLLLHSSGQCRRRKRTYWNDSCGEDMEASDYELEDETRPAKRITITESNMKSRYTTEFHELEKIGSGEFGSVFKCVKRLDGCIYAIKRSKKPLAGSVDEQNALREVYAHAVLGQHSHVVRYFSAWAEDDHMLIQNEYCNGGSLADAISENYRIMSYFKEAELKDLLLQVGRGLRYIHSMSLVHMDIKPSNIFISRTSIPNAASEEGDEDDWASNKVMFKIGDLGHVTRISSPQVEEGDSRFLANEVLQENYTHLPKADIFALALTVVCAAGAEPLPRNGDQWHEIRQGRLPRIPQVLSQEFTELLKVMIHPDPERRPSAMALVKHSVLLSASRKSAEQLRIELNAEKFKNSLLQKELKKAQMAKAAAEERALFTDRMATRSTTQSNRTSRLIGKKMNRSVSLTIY
T1 sequence (Q96SW2 whole entry): as the sequence (Q96SW2 whole entry) above
T1 sequence (Q16531 whole entry partner): as the sequence (Q16531 whole entry partner) above
T4 sequence (P48729 whole entry): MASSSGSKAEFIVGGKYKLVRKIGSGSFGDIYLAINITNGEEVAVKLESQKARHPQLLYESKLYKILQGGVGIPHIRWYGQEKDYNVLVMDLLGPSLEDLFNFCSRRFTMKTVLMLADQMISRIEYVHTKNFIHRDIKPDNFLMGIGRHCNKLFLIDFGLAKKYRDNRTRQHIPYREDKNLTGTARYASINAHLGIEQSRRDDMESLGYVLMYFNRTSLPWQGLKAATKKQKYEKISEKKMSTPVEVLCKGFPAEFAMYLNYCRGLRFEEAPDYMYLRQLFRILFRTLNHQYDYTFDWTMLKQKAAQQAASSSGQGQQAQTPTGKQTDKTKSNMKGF
T4 sequence (Q96SW2 whole entry): as the sequence (Q96SW2 whole entry) above
T4 sequence (Q16531 whole entry partner): as the sequence (Q16531 whole entry partner) above
T6 sequence (Q13422 whole entry): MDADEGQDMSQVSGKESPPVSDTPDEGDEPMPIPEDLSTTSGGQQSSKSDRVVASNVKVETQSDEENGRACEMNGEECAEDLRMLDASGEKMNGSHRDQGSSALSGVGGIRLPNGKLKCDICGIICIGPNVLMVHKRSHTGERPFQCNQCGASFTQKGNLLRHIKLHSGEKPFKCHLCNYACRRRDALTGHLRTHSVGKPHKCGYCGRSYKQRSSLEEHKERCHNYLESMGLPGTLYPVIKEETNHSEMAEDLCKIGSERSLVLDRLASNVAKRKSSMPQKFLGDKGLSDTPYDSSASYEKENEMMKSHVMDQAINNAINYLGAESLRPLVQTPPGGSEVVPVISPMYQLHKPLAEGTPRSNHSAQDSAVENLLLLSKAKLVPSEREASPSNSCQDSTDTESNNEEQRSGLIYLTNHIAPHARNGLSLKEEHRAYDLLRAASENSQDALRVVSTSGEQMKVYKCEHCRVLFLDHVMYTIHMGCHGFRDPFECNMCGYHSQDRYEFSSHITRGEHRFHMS
T6 sequence (Q96SW2 whole entry): as the sequence (Q96SW2 whole entry) above
T6 sequence (Q16531 whole entry partner): as the sequence (Q16531 whole entry partner) above
T2 sequence (P15170 whole entry): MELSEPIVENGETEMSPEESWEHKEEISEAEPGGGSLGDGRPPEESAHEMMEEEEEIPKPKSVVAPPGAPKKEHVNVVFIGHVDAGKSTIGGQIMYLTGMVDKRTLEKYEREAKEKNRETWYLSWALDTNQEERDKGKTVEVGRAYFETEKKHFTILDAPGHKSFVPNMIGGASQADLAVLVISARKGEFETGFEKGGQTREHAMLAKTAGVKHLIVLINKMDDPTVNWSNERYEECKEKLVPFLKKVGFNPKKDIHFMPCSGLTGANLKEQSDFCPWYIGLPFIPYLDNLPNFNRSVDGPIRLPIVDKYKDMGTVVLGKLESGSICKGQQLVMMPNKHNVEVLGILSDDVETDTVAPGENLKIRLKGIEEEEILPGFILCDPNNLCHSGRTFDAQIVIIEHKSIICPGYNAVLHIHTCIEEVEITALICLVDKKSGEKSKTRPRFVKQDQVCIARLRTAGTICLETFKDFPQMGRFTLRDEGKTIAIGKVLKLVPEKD
T2 sequence (Q96SW2 whole entry): as the sequence (Q96SW2 whole entry) above
T2 sequence (Q16531 whole entry partner): as the sequence (Q16531 whole entry partner) above

| SMILES | WEE1 substrate protein remaining % (WEE1) | GSPT1 substrate protein remaining % (GSPT1) | IKZF3 substrate protein remaining % (IKZF3) | IC50 (MM.1S) [nM] | CK1α substrate protein remaining % (CK1α) | IKZF2 substrate protein remaining % (IKZF2) | IKZF1 substrate protein remaining % (IKZF1) | substrate protein remaining % WEE1 (WEE1) | substrate protein remaining % GSPT1 (GSPT1) | substrate protein remaining % IKZF3 (IKZF3) | substrate protein remaining % CK1α (CK1α) | substrate protein remaining % IKZF2 (IKZF2) | substrate protein remaining % IKZF1 (IKZF1) | inhibition at 0.01 µM (MV-4-11; read-out: Inhibition Rate at 10 nM (%)) [%] | inhibition at 0.5 µM (MV-4-11; read-out: Inhibition Rate at 500 nM (%)) [%] | inhibition at 0.01 µM (MM.1S) [%] | inhibition at 0.5 µM (MM.1S) [%] | inhibition at 0.01 µM (H292) [%] | inhibition at 0.5 µM (H292) [%] |
| --- | --- | --- | --- | --- | --- | --- | --- | --- | --- | --- | --- | --- | --- | --- | --- | --- | --- | --- | --- |
| O=C1CCN(N2Cc3cc(CN4CC=C(c5nccc(Cl)c5Cl)CC4)ccc3C2=O)C(=O)N1 [GT-06392, 1-(5-((3,4-dichloro-3',6'-dihydro-[2,4'-bipyridin]-1'(2'H)-yl)methyl)-1-oxoisoindolin-2-yl)dihydropyrimidine-2,4(1H,3H)-dione] | A ("A" is defined as 0% ≤ substrate protein remaining % ≤ 80%) | A ("A" is defined as 0% ≤ substrate protein remaining % ≤ 80%) | A ("A" is defined as 0% ≤ substrate protein remaining % ≤ 80%) | 300 to 500 | A ("A" is defined as 0% ≤ substrate protein remaining % ≤ 80%) | A ("A" is defined as 0% ≤ substrate protein remaining % ≤ 80%) | B ("B" is defined as 80%< substrate protein remaining %≤ 100%) |  |  |  |  |  |  |  |  |  |  |  |  |
| O=C1CCN(N2Cc3cc(CN4CC=C(c5cncc(Cl)c5Cl)CC4)ccc3C2=O)C(=O)N1 [GT-06393, 1-(5-((4,5-dichloro-3',6'-dihydro-[3,4'-bipyridin]-1'(2'H)-yl)methyl)-1-oxoisoindolin-2-yl)dihydropyrimidine-2,4(1H,3H)-dione] | A ("A" is defined as 0% ≤ substrate protein remaining % ≤ 80%) | A ("A" is defined as 0% ≤ substrate protein remaining % ≤ 80%) | A ("A" is defined as 0% ≤ substrate protein remaining % ≤ 80%) | 500 to 1000 | A ("A" is defined as 0% ≤ substrate protein remaining % ≤ 80%) | A ("A" is defined as 0% ≤ substrate protein remaining % ≤ 80%) | B ("B" is defined as 80%< substrate protein remaining %≤ 100%) |  |  |  |  |  |  |  |  |  |  |  |  |
| CC1(C)CCC(CN2CC3CC(C2)N3Cc2ccc3c(c2)CN(N2CCC(=O)NC2=O)C3=O)=C(c2ccc(Cl)cc2)C1 [GT-06456, 1-(5-((3-((4'-chloro-5,5-dimethyl-3,4,5,6-tetrahydro-[1,1'-biphenyl]-2-yl)methyl)-3,6-diazabicyclo[3.1.1]heptan-6-yl)methyl)-1-oxoisoindolin-2-yl)dihydropyrimidine-2,4(1H,3H)-dione] | A ("A" is defined as 0% ≤ substrate protein remaining % ≤ 80%) | A ("A" is defined as 0% ≤ substrate protein remaining % ≤ 80%) | A ("A" is defined as 0% ≤ substrate protein remaining % ≤ 80%) | 100 to 300 | A ("A" is defined as 0% ≤ substrate protein remaining % ≤ 80%) | A ("A" is defined as 0% ≤ substrate protein remaining % ≤ 80%) | A ("A" is defined as 0% ≤ substrate protein remaining % ≤ 80%) |  |  |  |  |  |  |  |  |  |  |  |  |
| O=C1CCN(N2Cc3cc(CN4CCC(c5ccsc5)CC4)ccc3C2=O)C(=O)N1 [GT-07371, 1-(1-oxo-5-((4-(thiophen-3-yl)piperidin-1-yl)methyl)isoindolin-2-yl)dihydropyrimidine-2,4(1H,3H)-dione] |  |  |  | 500 to 1000 |  |  |  | B (80%< substrate protein remaining %≤ 100%) | A (0% ≤ substrate protein remaining % ≤ 80%) | A (0% ≤ substrate protein remaining % ≤ 80%) | B (80%< substrate protein remaining %≤ 100%) | B (80%< substrate protein remaining %≤ 100%) | B (80%< substrate protein remaining %≤ 100%) |  |  |  |  |  |  |
| Cc1ccc(C2CCN(Cc3ccc4c(c3)CN(N3CCC(=O)NC3=O)C4=O)CC2)s1 [GT-07425, 1-(5-((4-(5-methylthiophen-2-yl)piperidin-1-yl)methyl)-1-oxoisoindolin-2-yl)dihydropyrimidine-2,4(1H,3H)-dione] |  |  |  | 500 to 1000 |  |  |  | B (80%< substrate protein remaining %≤ 100%) | A (0% ≤ substrate protein remaining % ≤ 80%) | B (80%< substrate protein remaining %≤ 100%) | B (80%< substrate protein remaining %≤ 100%) | B (80%< substrate protein remaining %≤ 100%) | B (80%< substrate protein remaining %≤ 100%) |  |  |  |  |  |  |
| Cc1nc(C2=CCN(Cc3ccc4c(c3)CN(N3CCC(=O)NC3=O)C4=O)CC2)c2ccsc2n1 [GT-08175, 1-(5-((4-(2-methylthieno[2,3-d]pyrimidin-4-yl)-3,6-dihydropyridin-1(2H)-yl)methyl)-1-oxoisoindolin-2-yl)dihydropyrimidine-2,4(1H,3H)-dione] |  |  |  |  |  |  |  |  |  |  |  |  |  | 18 to 25 | 80 to 100 | -10 to -5 | 80 to 100 |  |  |
| O=C1CCN(N2C(=O)c3ccc(CN4CC=C(c5ncnc6sc7c(c56)CCCC7)CC4)cc3C2=O)C(=O)N1 [GT-08433, 2-(2,4-dioxotetrahydropyrimidin-1(2H)-yl)-5-((4-(5,6,7,8-tetrahydrobenzo[4,5]thieno[2,3-d]pyrimidin-4-yl)-3,6-dihydropyridin-1(2H)-yl)methyl)isoindoline-1,3-dione] |  |  |  |  |  |  |  | B (80%< substrate protein remaining %≤ 100%) | A (0% ≤ substrate protein remaining % ≤ 80%) | A (0% ≤ substrate protein remaining % ≤ 80%) | A (0% ≤ substrate protein remaining % ≤ 80%) | B (80%< substrate protein remaining %≤ 100%) | B (80%< substrate protein remaining %≤ 100%) |  |  | 20 to 30 | 30 to 42 | 20 to 40 | 15 to 20 |
| O=C1CCN(N2Cc3cc(CN4CC=C(c5ncc6ccsc6n5)CC4)ccc3C2=O)C(=O)N1 [GT-08438, 1-(1-oxo-5-((4-(thieno[2,3-d]pyrimidin-2-yl)-3,6-dihydropyridin-1(2H)-yl)methyl)isoindolin-2-yl)dihydropyrimidine-2,4(1H,3H)-dione] |  |  |  |  |  |  |  | A (0% ≤ substrate protein remaining % ≤ 80%) | A (0% ≤ substrate protein remaining % ≤ 80%) | A (0% ≤ substrate protein remaining % ≤ 80%) | B (80%< substrate protein remaining %≤ 100%) | B (80%< substrate protein remaining %≤ 100%) | A (0% ≤ substrate protein remaining % ≤ 80%) |  |  | 20 to 30 | 80 to 100 | 20 to 40 | 10 to 15 |
| O=C1CCN(N2Cc3cc(CN4CCN(c5nc(N6CCOCC6)nc6ccsc56)CC4)ccc3C2=O)C(=O)N1 [GT-08446, 1-(5-((4-(2-morpholinothieno[3,2-d]pyrimidin-4-yl)piperazin-1-yl)methyl)-1-oxoisoindolin-2-yl)dihydropyrimidine-2,4(1H,3H)-dione] |  |  |  |  |  |  |  | B (80%< substrate protein remaining %≤ 100%) | A (0% ≤ substrate protein remaining % ≤ 80%) | A (0% ≤ substrate protein remaining % ≤ 80%) | B (80%< substrate protein remaining %≤ 100%) | B (80%< substrate protein remaining %≤ 100%) | B (80%< substrate protein remaining %≤ 100%) |  |  | 42 to 60 | 30 to 42 | 20 to 40 | 20 to 40 |
| Cc1nc(C2=CCN(Cc3ccc4c(c3)C(=O)N(N3CCC(=O)NC3=O)C4=O)CC2)c2c(-c3ccccc3)csc2n1 [GT-08484, 2-(2,4-dioxotetrahydropyrimidin-1(2H)-yl)-5-((4-(2-methyl-5-phenylthieno[2,3-d]pyrimidin-4-yl)-3,6-dihydropyridin-1(2H)-yl)methyl)isoindoline-1,3-dione] |  |  |  |  |  |  |  | A (0% ≤ substrate protein remaining % ≤ 80%) | A (0% ≤ substrate protein remaining % ≤ 80%) | A (0% ≤ substrate protein remaining % ≤ 80%) | A (0% ≤ substrate protein remaining % ≤ 80%) | A (0% ≤ substrate protein remaining % ≤ 80%) | A (0% ≤ substrate protein remaining % ≤ 80%) |  |  | 42 to 60 | 20 to 30 | 20 to 40 | 15 to 20 |
